Source: US7737121B2, “Insulin secretion by anthocyanins and anthocyanidins” (Board of Trustees of Michigan State University, priority 2004, dated 2010)

Tests used:
[1] = mice; cited from earlier work
[2] = tested on: INS-1 832/13 cells; experiment: Insulin secretion by INS-1 832/13 pancreatic beta cells (static secretion, insulin by RIA, normalized to cellular protein); type: cell-based, rodent; conditions: for increase in insulin secretion: increase over untreated cells; for fold increase in insulin secretion: versus untreated cells
Protocol: Insulin Secretion Studies. INS-1 832/13 cells (kindly provided by Dr Christopher Newgard, Duke University, NC) (18) were routinely cultured in 5% CO2/air at 37° C. in RPMI-1640 medium containing 11.1 mM glucose and supplemented with 10% FBS (Fetal Bovine Serum), 10 mM HEPES, 100 U/ml penicillin, 100 μg/ml streptomycin, 4 mM Glutamine, 1 mM sodium pyruvate, and 50 μM 2-mercaptoethanol. Cells were passed weekly after trypsin-EDTA detachment. For static secretion studies, cells were plated on 24 well plates at a density of 0.64×10^6 cells per well and grown for 24 h. The cells were then cultured for an additional 24 h in RPMI-1640 containing 4 mM glucose and the supplements described above. Cells were then incubated twice for 30 min in Krebs Ringer Bicarbonate buffer (KRBB) containing 4 mM glucose and 0.1% BSA. Cells were rapidly washed with KRBB and incubated for 60 min KRBB containing 4 or 10 mM glucose with or without the indicated anthocyanins or anthocyanidins. The medium was then removed for determining insulin release. The cells were then washed twice with PBS and dissolved in 1 M NaOH. Cellular protein concentration was then determined by Lowry assay. Anthocyanins and anthocyanidins were dissolved in DMSO to obtain desired concentrations. Final concentration of DMSO was 0.1%. The insulin secreted into the medium by the cells was determined by radioimmuno assay and normalized to total cellular protein.
Radio Immuno Assay (RIA). The Kit for RIA was purchased from LINCO Research Inc. (St Charles, Mo.), and the assay was conducted according to the manufacturer's directions. Briefly, 0.1-10 ng of insulin standards (100 μl) were added to 12×75 mm test tubes. Similarly, samples (25 μl) from the insulin secretion studies were also added to the test tubes. To this, an aliquot (75 μl) of assay buffer was added. The ^125I labeled insulin (100 μl) was then added to each test tube. […] The tubes were then centrifuged and the radioactivity was measured using a gamma counter.
Lowry protein Assay. The amount of protein in the assay wells was determined by Lowry method (Francis, J. A., et al., Helv. Chim. Acta 87 317-326 (2004)). The Lowry assay solution was prepared by combining the Lowry solution, CuSO4.5H2O (1%), and sodium tartarate (1%). Briefly, the protein sample (100 μl) and Lowry mixture (1 mL) were mixed in a test tube (12×75). The Folin-Ciolatues reagent (100 μl) was added to these tubes, mixed, and incubated for 30 min at room temperature. The optical density of resulting solutions was read at 700 nm using a UV spectrophotometer.

[3] = 4 mM glucose, 50 μg/mL compound
[4] = 10 mM glucose, 50 μg/mL compound

SMILES	high fat diet induced obesity [1]	insulin secreted (dose dependent assay) ([2]; 4 mM glucose, 5 μg/mL compound, untreated cells 33)	effect on insulin secretion, result in words [2, 3]	increase in insulin secretion ([2]; 4 mM glucose, 50 μg/mL compound, 60 min)	fold increase in insulin secretion [2, 3] [fold]	insulin secretion (dose dependent assay), result in words ([2]; 4 mM glucose, 10, 50, 100 and 250 μg/mL compound)	effect on insulin secretion, result in words [2, 4]	effect on insulin secretion, result in words ([2]; 4 and 10 mM glucose)	insulin secreted ([2]; 4 mM glucose, 50 μg/mL compound, total secreted by treated cells)	fold increase in insulin secretion [2, 4] [fold]	effect on insulin secretion, result in words ([2]; 4 and 10 mM glucose, listed as delphinidin-3-glucoside)	increase in insulin secretion [2, 4]
OC[C@H]1O[C@@H](Oc2cc3c(O)cc(O)cc3[o+]c2-c2ccc(O)c(O)c2)[C@H](O)[C@@H](O)[C@@H]1O [Compound 1, cyanidin-3-glucoside]	reduced	46 ng of insulin per mg protein	less active than delphinidin-3-glucoside	9 ng/mg of protein	1.3	no significant difference	more active	most effective insulin secretagogues	–	–	–	–
OC[C@H]1O[C@@H](Oc2cc3c(O)cc(O)cc3[o+]c2-c2cc(O)c(O)c(O)c2)[C@H](O)[C@@H](O)[C@@H]1O [Compound 2, delphinidin-3-glucoside]	–	–	–	–	1.8	–	–	most effective insulin secretagogues	49 ng/mg of protein	1.4	significantly induced the insulin secretion	–
OC[C@H]1O[C@@H](Oc2cc3c(O)cc(O)cc3[o+]c2-c2ccc(O)c(O)c2)[C@H](O)[C@@H](O)[C@H]1O [Compound 3, cyanidin-3-galactoside]	–	–	did not increase the insulin secretion	–	–	–	–	significant increase in insulin secretion	–	1.2	–	17 ng/mg of protein
OCC1OC(Oc2cc3c(O)cc(O)cc3[o+]c2-c2ccc(O)cc2)C(O)C(O)C1O (stereo not shown) [Compound 4, pelargonidin-3-galactoside]	–	–	did not increase the insulin secretion	–	–	–	–	did not induce insulin secretion	–	–	–	–
